The target of assay [1] is T1, Beta-secretase 1 (Homo sapiens, UniProt P56817). Kind of assay: Inhibition of BACE1 by secreted AAPbeta release assay.
Assay [2] deals with T1, Beta-secretase 1. Kind of assay: Inhibition of BACE1 by diluted TR-FRET assay.

T1 sequence (P56817 whole entry): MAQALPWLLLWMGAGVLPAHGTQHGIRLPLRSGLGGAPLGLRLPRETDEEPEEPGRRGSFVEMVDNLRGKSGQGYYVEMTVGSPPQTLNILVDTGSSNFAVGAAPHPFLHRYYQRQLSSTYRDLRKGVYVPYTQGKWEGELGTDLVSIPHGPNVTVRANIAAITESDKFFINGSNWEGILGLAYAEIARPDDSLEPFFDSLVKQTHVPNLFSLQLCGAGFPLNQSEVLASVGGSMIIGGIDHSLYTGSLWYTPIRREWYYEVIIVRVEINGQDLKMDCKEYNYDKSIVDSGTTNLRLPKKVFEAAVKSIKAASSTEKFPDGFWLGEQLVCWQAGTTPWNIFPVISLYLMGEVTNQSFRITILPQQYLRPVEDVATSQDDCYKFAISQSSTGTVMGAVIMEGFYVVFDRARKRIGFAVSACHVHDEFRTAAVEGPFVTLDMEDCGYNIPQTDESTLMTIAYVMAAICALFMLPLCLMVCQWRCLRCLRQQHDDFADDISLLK

`CCn1cc([C@]2(c3cccc(-c4cncc(C#N)c4)c3)N=C(N)c3c(F)cccc32)cc(C)c1=O`: the IC50 in assay [1] came to 2 nM; in assay [2], 8 nM. The like results for `CC#Cc1cncc(-c2cccc([C@@]3(c4cc(C(F)F)c(=O)n(CC)c4)N=C(N)c4c(F)cccc43)c2)c1` were, in that order, 4 nM and 6 nM.

In assay [1], `CC#Cc1ccnc(-c2cccc([C@@]3(c4cc(C)c(=O)n(CC)c4)N=C(N)c4c(F)cccc43)c2)c1` returned an IC50 of 2 nM.

In general, IC50 refers to the concentration that inhibits the measured activity by half.
